In patent publication US10683278B2 (JINAN UNIVERSITY, priority 2015, dated 2020):
Like-named read-outs stand apart in the source and are kept apart here.

Columns and labels:
AXL kinase = target: T1, AXL kinase (Homo sapiens, UniProt P30530); experiment: IC50 test on AXL kinase (Z′-LYTE FRET kinase activity detection); assay type: biochemical; settings: for IC50: Z′-LYTE FRET peptide assay, 1 h reaction; for inhibitory activity on AXL kinase: competitive experiment with ATP, in words
T1 construct: purchased Invitrogen PV4803
T1 sequence (P30530 26-894): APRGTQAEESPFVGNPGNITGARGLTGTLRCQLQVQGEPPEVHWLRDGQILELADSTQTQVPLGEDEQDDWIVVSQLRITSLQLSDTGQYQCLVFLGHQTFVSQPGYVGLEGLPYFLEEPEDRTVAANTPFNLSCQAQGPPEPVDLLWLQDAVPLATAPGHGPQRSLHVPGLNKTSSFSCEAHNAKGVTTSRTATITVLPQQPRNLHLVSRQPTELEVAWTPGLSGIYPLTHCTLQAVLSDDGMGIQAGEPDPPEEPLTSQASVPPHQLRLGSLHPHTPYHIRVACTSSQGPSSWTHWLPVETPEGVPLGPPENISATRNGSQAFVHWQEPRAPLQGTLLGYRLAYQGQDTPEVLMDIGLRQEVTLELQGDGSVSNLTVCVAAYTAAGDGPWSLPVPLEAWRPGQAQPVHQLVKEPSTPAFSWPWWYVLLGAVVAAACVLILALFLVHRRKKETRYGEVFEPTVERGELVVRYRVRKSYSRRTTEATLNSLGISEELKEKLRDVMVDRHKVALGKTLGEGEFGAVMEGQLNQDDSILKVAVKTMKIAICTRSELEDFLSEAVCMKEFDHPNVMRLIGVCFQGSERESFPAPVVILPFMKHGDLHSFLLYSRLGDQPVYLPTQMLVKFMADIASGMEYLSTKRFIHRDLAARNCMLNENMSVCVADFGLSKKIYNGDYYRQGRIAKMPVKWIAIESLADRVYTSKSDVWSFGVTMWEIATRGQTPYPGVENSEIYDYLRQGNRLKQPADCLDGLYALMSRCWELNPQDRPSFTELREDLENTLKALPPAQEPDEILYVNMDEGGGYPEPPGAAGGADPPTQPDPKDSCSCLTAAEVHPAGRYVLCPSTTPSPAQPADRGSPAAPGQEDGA
Procedure, shortened: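 AXL kinase with Z′-LYTE Tyr 2 FRET peptide, ATP and graded compound concentrations reacted 1 h, then site-specific protease cleaved non-phosphorylated peptide for 1 h. Emission at 445 and 520 nm with 400 nm excitation gave the IC50.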

[1] = In vivo pharmacokinetic and bioavailability experiments of rats; parameters: species or system SD rats; settings: for pharmacokinetic parameter, overall judgement: hydrochlorides, in words; for bioavailability: po, 25 mg/kg, read-out: F (oral bioavailability)
Description: Pharmacokinetic and bioavailability experiments of rats. SD rats were administered orally (25 mg/kg) and intravenously (2.5 to 5 mg/kg) at a single dose. Animal blood samples were taken at appropriate time points after administration, heparin was added as anticoagulant, and same were centrifuged at 8000 rpm/min for 6 minutes, the supernatant was then taken and stored at −20° C. for HPLC-MS analysis. The proteins in blood samples were precipitated with acetonitrile at 12000 rpm for 10 min, and the supernatant was used for HPCL-MS analysis. Data were fit using DAS2.0 to obtain compartmental model and non-compartmental model parameters, respectively. The oral bioavailability of each compound was calculated according to AUC data.

[2] = Sprague-Dawley, rat, plasma, SD rats, Po, 25 mg/kg single dose
[3] = Sprague-Dawley, rat, plasma, SD rats, Po, 25 mg/kg single dose, read-out: Cmax
[4] = Sprague-Dawley, rat, plasma, SD rats, iv, 5 mg/kg single dose
[5] = Sprague-Dawley, rat, plasma, SD rats, iv, 5 mg/kg single dose, read-out: Cmax
[6] = SD rats, Po, 25 mg/kg single dose
[7] = SD rats, iv, 2.5 mg/kg single dose

| SMILES | IC50 (AXL kinase) [nM] | inhibitory activity on AXL kinase (AXL kinase) | pharmacokinetic parameter, overall judgement ([1]; SD rats) | bioavailability ([1]; Sprague-Dawley, rat, plasma) [%] | AUC(0-inf) [1, 2] [ng·h/mL] | AUC(0-t) [1, 2] [ng·h/mL] | half-life [1, 2] [min] | Cmax [1, 3] [ng/mL] | AUC(0-inf) [1, 4] [ng·h/mL] | AUC(0-t) [1, 4] [ng·h/mL] | clearance [1, 4] [mL/min/kg] | half-life [1, 4] [min] | Cmax [1, 5] [ng/mL] | AUC(0-∞) [1, 6] [µg·h/mL] | Cmax [1, 6] [ng/mL] | T1/2 [1, 6] [h] | other results |
| --- | --- | --- | --- | --- | --- | --- | --- | --- | --- | --- | --- | --- | --- | --- | --- | --- | --- |
| CCc1ccc2c(c1)c(=O)c(C(=O)Nc1ccc(Oc3ncnc4cc(OCCCN5CCOCC5)c(OC)cc34)c(F)c1)c(C)n2C [GDL5000123, 6-ethyl-N-(3-fluoro-4-((6-methoxy-7-(3-morpholinopropoxy)quinazolin-4-yl)oxy)phenyl)-1,2-dimethyl-4-oxo-1,4-dihydroquinoline-3-carboxamide] | 8 | strong inhibitory activity | appropriate pharmacokinetic parameter | 23.5 | 118000 | 51500 | 1600 | 3080 | 47700 | 43800 | 1.83 | 402 | 6480 |  |  |  |  |
| CCc1ccc2c(c1)c(=O)c(C(=O)Nc1ccc(Oc3ncnc4cc(OCCN(C)C)c(OC)cc34)c(F)c1)c(C)n2C [GDL5000128, N-(4-(7-(2-(dimethylamino)ethoxy)-6-methoxyquinazolin-4-yloxy)-3-fluorophenyl)-6-ethyl-1,2-dimethyl-4-oxo-1,4-dihydroquinoline-3-carboxamide] | 6 | strong inhibitory activity | appropriate pharmacokinetic parameter | 44.3 | 25600 | 25100 | 275 | 4630 | 11600 | 11300 | 7.5 | 349 | 16800 |  |  |  |  |
| CCc1ccc2c(c1)c(=O)c(C(=O)Nc1ccc(Oc3ncnc4cc(OCCCN5CCN(C)CC5)c(OC)cc34)c(F)c1)c(C)n2C [GDL5000138, 6-ethyl-N-(3-fluoro-4-(6-methoxy-7-(3-(4-methylpiperazin-1-yl)propoxy)quinazolin-4-yloxy)phenyl)-1,2-dimethyl-4-oxo-1,4-dihydroquinoline-3-carboxamide] | 3 | strong inhibitory activity | appropriate pharmacokinetic parameter | 27.5 | 31300 | 11300 | 2090 | 656 | 8530 | 8220 | 9.83 | 343 | 3560 |  |  |  |  |
| CCc1ccc2c(c1)c(=O)c(C(=O)Nc1ccc(Oc3ncnc4[nH]cc(-c5ccccc5)c34)c(F)c1)c(C)n2C [TL4800075, 6-ethyl-N-(3-fluoro-4-((5-phenyl-7H-pyrrolo[2,3-d]pyrimidin-4-yl)oxy)phenyl)-1,2-dimethyl-4-oxo-1,4-dihydroquinoline-3-carboxamide] | 6 |  |  | 1.23 |  | 371 |  |  |  |  |  |  |  | 0.50571 | 121.74 | 3.72 | AUC(0-∞) [1, 7]: 3.02964 µg·h/mL; CL [1, 7]: 0.83 L/h/kg; Cmax [1, 7]: 2910.13 ng/mL; T1/2 [1, 7]: 0.87 h; AUC(0-t) ([1]; Sprague-Dawley, rat, plasma, SD rats, iv, 2.5 mg/kg single dose): 3020 ng·h/mL |
| CCc1ccc2c(c1)c(=O)c(C(=O)Nc1ccc(Oc3ncnc4cc(OC)c(OC)cc34)c(F)c1)c(C)n2C [TL4800191, N-(4-(6,7-dimethoxyquinazolin-4-yloxy)-3-fluorophenyl)-6-ethyl-1,2-dimethyl-4-oxo-1,4-dihydroquinoline-3-carboxamide] | 4 |  |  |  |  | 31300 |  |  | 42300 | 30500 | 1.67 | 1510 | 1170 | 31.505 | 1967 | 10.2 | F (oral bioavailability) ([1]; SD rats, Po 25 mg/kg vs iv 2.5 to 5 mg/kg, calculated according to AUC data): 14.9%; CL [1, 6]: 0.9 L/h/kg |
| COc1cc2ncnc(Oc3ccc(NC(=O)c4cn5c6c(c(N7CCC(O)CC7)c(F)cc6c4=O)CCC5C)cc3F)c2cc1OC (stereo not shown) [TL4830031, N-(4-((6,7-dimethoxyquinazolin-4-yl)oxy)-3-fluorophenyl)-9-fluoro-8-(4-hydroxypiperidin-1-yl)-5-methyl-1-oxo-1,5,6,7-tetrahydropyrido[3,2,1-ij]quinoline-2-carboxamide] | 28 |  |  | 12.1 | 25900 | 24400 | 341 | 2390 | 20700 | 20300 | 2 | 256 | 4360 |  |  |  |  |
